# Results taken from US10398155B2, “Animal feed comprising a combination of mono glycerides” (Proviron Holding N.V., priority 2013, dated 2019).
# Test system: Broiler chicken
# Test: Broiler growth test over 42 days with additives in animal feed or drinking water (AEW, FCR)
# Assay type: in vivo
# Conditions: for D 0-42 AEW (average final weight of the broilers at day 42): Poor Feed day 0-13 then Rich Feed to day 42, average of 5 pens; for Ranking AEW 42 / Ranking FCR 42: compared to Rich feed standard test = 100%; for D 0-42 FCR (conversion of feed to chicken weight): lower is better
# Experimental: Broiler chicken were grown during 42 days, with and without the abovementioned compositions being added to either the animal feed, or the drinking water.
# By the end of the test period of 42 days, the final weight of the broiler was determined, this is the AEW (Average End Weight), as well as the degree of conversion of feed to chicken weight, this is the FCR (Feed Conversion Rate). The latter parameter indicates the amount of feed a broiler chicken should eat per kilogram of final weight of the animal. The lower this parameter, the more efficient the chicken has been fed. This parameter is influenced by the way the animal feed is digested by the intestinal tract or metabolism of the chicken, but also by the way the feed offered to the chicken is effectively accepted by the animal. The latter to a large extent is determined by the taste of the feed offered. To the extent the taste of the feed offered is positively acknowledged by the chicken, less feed is removed by the animal; so dependent on the taste of the feed, more or less of the feed is discarded by the chicken.
# The tests were performed on groups of each time 20 broilers for each pen.
# Each test was repeated on each time five pens, so each test was performed on in total 100 broilers.
# Each value represents an average amount of the results obtained for each set of the five pens.
# It is then added to the feed as a powdery compound. In practice it is much easier to mix such a powdery composition with the animal feed, as compared to the addition of a fluid to the feed. • The next two columns show the results of the test, expressed as final weight of the animal, in this case a broiler chicken. • The column with the heading D 0-42 AEW denotes the average final weight of the broilers at day 42 (Average End Weight). The higher the value for this parameter, the better. • The column with the title Ranking AEW 42 denotes, expressed as a percentage, the result of the test in terms of AEW, as compared to the standard test, corresponding to a standard value set at 100%. • The last two columns set forth the results of the test, expressed differently, namely as a measure for the conversion of the feed in meat-resp. increase of weight of the animal, as set forth above. • The column with the title D 0-42 FCR denotes the average value of the conversion of feed to weight of the animal. The lower the value for this parameter, the better. The lower the value, the more efficient the conversion of feed into animal meat has been performed. • The column with the heading Ranking FCR 42 denotes, expressed as a percentage, the result of the test with respect to FCR, as compared to the standard test, which has been allocated the value of 100%.
# The feed that has been fed to the broilers in the various tests comprises two different embodiments: • a first type of feed is the so-called ‘Poor Feed’: this is a normal, customary feed that is being fed to the broilers, whereby no forced growth and feed conversion is to be expected, and whereby also no particular duty on the intestinal tract of the broilers is imposed. Differently phrased, the broilers have no difficulty in digesting this feed, and the younger broilers grow in a normal path to fully-grown adult animals. • a second type of feed is the so-called ‘Rich Feed’: this is a feed particularly high in energy and proteins, to which a component has been added that results in a more viscous intestine content. The result of the use of this type of feed is that the growth of the broilers is intensified, but it also results in a heavier load on the intestinal tract. So the intestines of the broilers should work harder to fully digest the feed absorbed by the animal. In this case the risk of disturbing the bacterial balance in the intestinal tract is substantially higher. Such an imbalance in bacteria (dysbacteriosis) may be a cause of diseases with resulting adverse effects. […]
# [1] = via drinking water, dosage 2.22 Kg/Ton
# [2] = TVN 5 mg/KgLW via drinking water, dosage 0.04 Kg/Ton
compound,measurement,setting,value
"CCCCCCCCCCCC(=O)OCC(O)CO (centres unmarked) [Comp 1, monolaurin]",D 0-42 AEW (average final weight of the broilers at day 42),dosage 1.2 Kg/Ton of feed,2.55 kg
same,Ranking AEW 42,dosage 1.2 Kg/Ton of feed,97%
same,Ranking FCR 42,dosage 1.2 Kg/Ton of feed,104.6%
same,D 0-42 FCR (conversion of feed to chicken weight),"dosage 1.2 Kg/Ton of feed, day 0-42",1.74
same,D 0-42 AEW (average final weight of the broilers at day 42),dosage 2.4 Kg/Ton of feed,2.65 kg
same,Ranking AEW 42,dosage 2.4 Kg/Ton of feed,101%
same,Ranking FCR 42,dosage 2.4 Kg/Ton of feed,101.3%
same,D 0-42 FCR (conversion of feed to chicken weight),"dosage 2.4 Kg/Ton of feed, day 0-42",1.69
"CCCC(=O)OCC(O)CO (centres unmarked) [Comp 4, monobutyrin]",D 0-42 AEW (average final weight of the broilers at day 42),dosage 2 Kg/Ton of feed,2.68 kg
same,Ranking AEW 42,dosage 2 Kg/Ton of feed,102%
same,Ranking FCR 42,dosage 2 Kg/Ton of feed,97.9%
same,D 0-42 FCR (conversion of feed to chicken weight),"dosage 2 Kg/Ton of feed, day 0-42",1.63
same,D 0-42 AEW (average final weight of the broilers at day 42),dosage 4 Kg/Ton of feed,2.63 kg
same,Ranking AEW 42,dosage 4 Kg/Ton of feed,100%
same,Ranking FCR 42,dosage 4 Kg/Ton of feed,101.9%
same,D 0-42 FCR (conversion of feed to chicken weight),"dosage 4 Kg/Ton of feed, day 0-42",1.70
same,D 0-42 AEW (average final weight of the broilers at day 42),[1],2.65 kg
same,Ranking AEW 42,[1],101%
same,Ranking FCR 42,[1],98.6%
same,D 0-42 FCR (conversion of feed to chicken weight),"via drinking water, dosage 2.22 Kg/Ton, day 0-42",1.64
"CC[C@H]1OC(=O)C[C@@H](OC(C)=O)[C@H](C)[C@@H](O[C@@H]2O[C@H](C)[C@@H](O[C@H]3C[C@@](C)(O)[C@@H](OC(=O)CC(C)C)[C@H](C)O3)[C@H](N(C)C)[C@H]2O)[C@@H](CC=O)C[C@@H](C)C(=O)/C=C/C(C)=C/[C@@H]1CO[C@@H]1O[C@H](C)[C@@H](O)[C@@H](OC)[C@H]1OC [Ref 3, Tylvalosin]",average increase in weight per day of the broilers,Rich Feed with addition of TVN,66.3 gr
same,D 0-42 AEW (average final weight of the broilers at day 42),[2],2.79 kg
same,Ranking AEW 42,[2],106%
same,Ranking FCR 42,[2],96.6%
same,Ranking AEW 42,"TVN 5 mg/KgLW via drinking water, dosage 0.04 Kg/Ton, listed as Tylvalosin",105.53%
same,D 0-42 FCR (conversion of feed to chicken weight),"TVN 5 mg/KgLW via drinking water, dosage 0.04 Kg/Ton, entire period day 0-42",1.61
